In US20220073554A1, “LINCOSAMIDE ANTIBIOTICS AND USES THEREOF” (President and Fellows of Harvard College, priority 2017, published 2022) one finds MIC data, which are given here for 5 compounds.

Structures are written as SMILES. Values after ≈ are worked out from the molar mass of the structure shown. Where two headings read alike, the source gives them in different places. Bounds are passed on as bounds.

Common to all, as to format: cell-based
The test system of test [1] is S. aureus MP-513 clinical cErm. The experiment in a line: MIC against S. aureus MP-513 clinical cErm. As to conditions: Staphylococcus aureus.
In test [2] the test system is S. aureus UNT96, NRS710, MP-618 (USA100, Erythro > 8). The experiment in a line: microbe, parasite or virus in culture. As to conditions: Staphylococcus aureus.
The test system of test [3] is K. pneumoniae ATCC 10031. The experiment in a line: MIC against K. pneumoniae ATCC 10031. As to conditions: Klebsiella pneumoniae, ATCC10031.
Test [4] relates to E. coli ATCC 25922. The experiment in a line: MIC against E. coli ATCC 25922. As to conditions: Escherichia coli, ATCC25922.
For test [5], the system named is P. aeruginosa ATCC 27853. The experiment in a line: MIC against P. aeruginosa ATCC 27853. As to conditions: Pseudomonas aeruginosa, ATCC27853.
The subject of test [6] is S. pyogenes ATCC 19615. The experiment in a line: MIC against S. pyogenes ATCC 19615. As to conditions: Streptococcus pyogenes, ATCC19615.
Test [7] relates to S. aureus UNT-120, MP-619, NR522 (USA 600, GISA). The experiment in a line: microbe, parasite or virus in culture. As to conditions: Staphylococcus aureus, USA600.
In test [8] the test system is S. aureus UNT-146, MP-620, TP 506 (ermA). The experiment in a line: microbe, parasite or virus in culture. As to conditions: Staphylococcus aureus.
Test [9] concerns S. aureus BAA 977 iErmA. The experiment in a line: MIC against S. aureus BAA 977 iErmA. As to conditions: Staphylococcus aureus, BAA977.
Test [10] has as its system E. faecalis UNT-047 VRE. The experiment in a line: microbe, parasite or virus in culture. As to conditions: Enterococcus faecalis.
For test [11], the system named is S. aureus ATCC 29213. The experiment in a line: MIC against S. aureus ATCC 29213. As to conditions: Staphylococcus aureus.
The test system of test [12] is S. aureus MP-549 msr(a) USA 300. The experiment in a line: MIC against S. aureus MP-549 msr(a) USA 300. As to conditions: Staphylococcus aureus, USA300, S. aureus MP-549 msr(a) USA 300.
In test [13] the test system is E. faecalis ATCC 29212. The experiment in a line: MIC against E. faecalis ATCC 29212. The note with it: Enterococcus faecalis, ATCC29212.
Test [14] concerns E. coli MP-9 ΔTolC. The experiment in a line: MIC against E. coli MP-9 ΔTolC. The note with it: Escherichia coli.
Test [15] relates to K. pneumoniae UNT TEM-10. The experiment in a line: microbe, parasite or virus in culture. The note with it: Klebsiella pneumoniae, UNTTEM10.
Test [16] concerns E. coli MMX 0121 ΔTolC. The experiment in a line: MIC against E. coli MMX 0121 ΔTolC. The note with it: Escherichia coli.
Test [17] relates to H. influenzae ATCC 49247. The experiment in a line: MIC against H. influenzae ATCC 49247. The note with it: Haemophilus influenzae, ATCC49247; H. influenzae ATCC 49247; read-out: MIC.
The test system of test [18] is S. pyogenes MMX 946 Macrolide-Resistant. The experiment in a line: MIC against S. pyogenes MMX 946 Macrolide-Resistant. The note with it: Streptococcus pyogenes.
Test [19] concerns S. aureus MMX 3035 cErmA. The experiment in a line: MIC against S. aureus MMX 3035 cErmA. As to conditions: Staphylococcus aureus, MMX3035CERMA.
Test [20] has as its system S. aureus BAA-1556 (USA 300). The experiment in a line: microbe, parasite or virus in culture. As to conditions: Staphylococcus aureus.
Test [21] deals with B. fragilis ATCC 25285. The experiment in a line: MIC against B. fragilis ATCC 25285. As to conditions: Bacteroides fragilis, ATCC25285.
Test [22] deals with S. pyogenes UNT-014, MP-625 MacRes. The experiment in a line: MIC against S. pyogenes UNT-014, MP-625 MacRes. The note with it: Streptococcus pyogenes.
The subject of test [23] is S. pneumoniae TP 1537 (ermB + mefA). The experiment in a line: MIC against S. pneumoniae TP 1537 (ermB + mefA). The note with it: Streptococcus pneumoniae.
The test system of test [24] is S. pneumoniae ATCC 49619. The experiment in a line: MIC against S. pneumoniae ATCC 49619. As to conditions: Streptococcus pneumoniae, ATCC49619; S. pneumoniae ATCC 49619; read-out: MIC.
Test [25] relates to E. coli ATCC 15922. The experiment in a line: MIC against E. coli ATCC 15922. As to conditions: Escherichia coli, ATCC15922.
In test [26] the test system is E. coli MMX TolC parent strain. The experiment in a line: MIC against E. coli MMX TolC parent strain. As to conditions: Escherichia coli.
Test [27] has as its system S. pneumoniae MMX 3031 cMefA. The experiment in a line: MIC against S. pneumoniae MMX 3031 cMefA. The note with it: Streptococcus pneumoniae, MMX3031CMEFA.
Test [28] has as its system S. pneumoniae UNT-039, MP-627, TP1517 (mefA). The experiment in a line: MIC against S. pneumoniae UNT-039, MP-627, TP1517 (mefA). As to conditions: Streptococcus pneumoniae.
Test [29] has as its system S. pneumoniae TP 1579 (ermB + tet(M, O)). The experiment in a line: MIC against S. pneumoniae TP 1579 (ermB + tet(M, O)). As to conditions: Streptococcus pneumoniae.
Test [30] concerns C. difficile BAA 1805. The experiment in a line: MIC against C. difficile BAA 1805. The note with it: Clostridioides difficile, BAA1805; C. difficile BAA 1805; read-out: MIC.
The test system of test [31] is P. aeruginosa MMX Mex parent strain. The experiment in a line: MIC against P. aeruginosa MMX Mex parent strain. As to conditions: Pseudomonas aeruginosa.
Test [32] deals with S. pneumoniae UNT-038, MP-626, TP 160 (mefA). The experiment in a line: MIC against S. pneumoniae UNT-038, MP-626, TP 160 (mefA). The note with it: Streptococcus pneumoniae.
Test [33] concerns E. coli GUEST131 (NDM-1). The experiment in a line: microbe, parasite or virus in culture. The note with it: Escherichia coli.
The test system of test [34] is K. pneumoniae IHMA 658692; KPC-2. The experiment in a line: microbe, parasite or virus in culture. The note with it: Klebsiella pneumoniae.
Test [35] relates to E. faecalis MMX 847 Macrolide-Resistant. The experiment in a line: MIC against E. faecalis MMX 847 Macrolide-Resistant. The note with it: Enterococcus faecalis.
Test [36] deals with S. pneumoniae MMX 3028 cErmB. The experiment in a line: MIC against S. pneumoniae MMX 3028 cErmB. As to conditions: Streptococcus pneumoniae, MMX3028CERMB; S. pneumoniae MMX 3028 cErmB; read-out: MIC.
For test [37], the system named is S. aureus Micromyx USA 300. The experiment in a line: MIC against S. aureus Micromyx USA 300. As to conditions: Staphylococcus aureus, USA300; S. aureus Micromyx USA 300; read-out: MIC.
The test system of test [38] is P. aeruginosa MMX 3476 Δmex. The experiment in a line: MIC against P. aeruginosa MMX 3476 Δmex. As to conditions: Pseudomonas aeruginosa.
Where [39] appears, read: S. pyogenes ATCC 19615, read-out: MIC.
The mark [40] stands for this setting: ATCC29213, S. aureus ATCC 29213, read-out: MIC.

In the case of `CSC1O[C@H]([C@H](NC(=O)[C@H]2NC[C@@H]3C[C@@H](O)[C@@H](O)CO[C@H]32)[C@H](C)Cl)C(O)[C@@H](O)[C@H]1O` (stereo partly shown) [FSA-501076], the MIC in [1], in [2], in test [3], in test [4], in test [5] and in test [6] was over 64 µg/mL in each case. Besides, the MIC in test [7], in [8], in [9], in test [10], in test [11] (ATCC29213) and in [12] was over 64 µg/mL each time. The MIC in test [13] and in [14] was over 64 µg/mL each time.

On to `CSC1O[C@H]([C@H](NC(=O)[C@H]2NC[C@@H]3CC=CCO[C@H]32)[C@H](C)Cl)C(O)[C@@H](O)[C@H]1O` (stereo partly shown) [FSA-24035], for which the MIC was over 32 µg/mL in [15]; 4 µg/mL (≈ 9.15 µM) in [16]; 1 µg/mL (≈ 2.29 µM) in test [17]; 16 µg/mL (≈ 36.6 µM) in test [18]; over 64 µg/mL in test [19]; over 32 µg/mL in test [2]. In addition, the MIC was over 32 µg/mL in test [20]; 8 µg/mL (≈ 18.3 µM) in [21] (B. fragilis ATCC 25285, read-out: MIC); at most 0.0313 µg/mL in [22]; 32 µg/mL in test [23] (S. pneumoniae TP 1537 (ermB + mefA), read-out: MIC); at most 0.06 µg/mL in test [24]; over 64 µg/mL in test [5]. In addition, the MIC in test [25] was over 64 µg/mL; in test [6] (setting [39]), at most 0.0313 µg/mL; in test [7] it was over 32 µg/mL; in test [26] it was over 64 µg/mL; in test [27], at most 0.06 µg/mL; in [28], at most 0.0313 µg/mL. Besides, the MIC in test [29] is at most 0.0313 µg/mL; in test [30], 2 µg/mL (≈ 4.58 µM); in test [31], over 64 µg/mL; in test [8], over 32 µg/mL; in [32] it was at most 0.0313 µg/mL; in [33], over 32 µg/mL. Moreover, the MIC in [10] is over 32 µg/mL; in [12] it was 0.5 µg/mL (≈ 1.14 µM); in test [34], over 32 µg/mL; in [13], 16 µg/mL (≈ 36.6 µM); in test [35], over 64 µg/mL.

Turning to `CSC1O[C@H]([C@H](NC(=O)[C@H]2NC[C@@H]3CC=CCO[C@H]32)[C@H](C)Sc2ccc(-c3cncnc3)cc2)C(O)[C@@H](O)[C@H]1O` (stereo partly shown) [FSA-27049], the MIC is 8 µg/mL (≈ 13.6 µM) in test [16]; 2 µg/mL (≈ 3.4 µM) in [18] (S. pyogenes MMX 946 Macrolide-Resistant (MacRes), read-out: MIC); over 64 µg/mL in test [1]; 39 µg/mL (≈ 66.2 µM) in test [36]; over 64 µg/mL in test [19]; over 64 µg/mL in [21]. For the same compound, the MIC in test [24] is at most 0.06 µg/mL; in [5], over 64 µg/mL; in [37], 1 µg/mL (≈ 1.7 µM); in test [25], over 64 µg/mL; in test [6] (setting [39]), at most 0.06 µg/mL; in [26], over 64 µg/mL. Also, the MIC in test [27] is at most 0.06 µg/mL; in [30] it was 1 µg/mL (≈ 1.7 µM); in test [31] it was over 64 µg/mL; in test [38], over 64 µg/mL; in [9] it was 2 µg/mL (≈ 3.4 µM); in test [11] (setting [40]), 1 µg/mL (≈ 1.7 µM). For the same compound, the MIC in [35] was over 64 µg/mL.

For the compound `CSC1O[C@H]([C@H](NC(=O)[C@H]2NC[C@@H]3C[C@H]4OC(C)(C)O[C@H]4CO[C@H]32)[C@H](C)Cl)C(O)[C@@H](O)[C@H]1O` (stereo partly shown) [FSA-501099], the MIC was over 64 µg/mL in test [1]; over 64 µg/mL in test [2]; over 64 µg/mL in test [3]; 32 µg/mL (≈ 62.6 µM) in test [22]; over 64 µg/mL in test [4]; 8 µg/mL (≈ 15.7 µM) in test [24]. For the same compound, the MIC is over 64 µg/mL in test [5]; over 64 µg/mL in test [7]; 2 µg/mL (≈ 3.91 µM) in test [28]; over 64 µg/mL in [8]; over 64 µg/mL in [9]; over 64 µg/mL in test [10]. Further, the MIC in [11] (ATCC29213), in [12], in test [13] and in [14] was over 64 µg/mL throughout.

With `CSC1O[C@H]([C@H](NC(=O)[C@@H]2[C@@H]3OCCCC[C@H]3CN2C)[C@H](C)Cl)C(O)[C@@H](O)[C@H]1O` (stereo partly shown) [FSA-24040], the MIC is 8 µg/mL (≈ 17.7 µM) in test [17]; over 32 µg/mL in test [2]; over 32 µg/mL in [20]; 8 µg/mL (≈ 17.7 µM) in [3] (K. pneumoniae ATCC 10031, read-out: MIC); at most 0.0313 µg/mL in test [22]; over 32 µg/mL in test [23]. Moreover, the MIC was at most 0.0313 µg/mL in test [24]; over 32 µg/mL in [5]; over 32 µg/mL in test [25]; at most 0.0313 µg/mL in test [6] (setting [39]); over 32 µg/mL in test [7]; at most 0.0313 µg/mL in test [28]. The MIC in test [29] was at most 0.0313 µg/mL; in test [8] it was over 32 µg/mL; in test [32] it was at most 0.0313 µg/mL; in test [33], over 32 µg/mL; in [10], over 32 µg/mL; in test [11] (setting [40]), at most 0.0313 µg/mL. The MIC in [34] was over 32 µg/mL.
